{"source": "patent US6683201B2", "about": "“Analine derivatives as OSC inhibitors” (Hoffmann-La Roche Inc., priority 2000, dated 2004)", "data": [{"smiles": "CN(C)CCCCOc1ccc(N(C)S(=O)(=O)c2ccc(C(F)(F)F)cc2)cc1", "note": "[Example 14.1, N-[4-(4-Dimethylamino-butoxy)-phenyl]-N-methyl-4-trifluoromethyl-benzenesulfonamide]", "values": [{"measurement": "melting point", "result": "151 to 153", "unit": "°C"}]}]}
